Experimental findings from paper PMC4686731, “Screening of Pharmacologically Active Small Molecule Compounds Identifies Antifungal Agents Against Candida Biofilms” (Frontiers in Microbiology, 2015) are described below.

The subject of one data set is C. albicans SC5314. The data set can be described thus: AST, adhesion phase. As to conditions: Candida albicans, SC5314, 1.5 h, read-out: Minimum inhibitory concentration (MIC). In kind it is cell-based. The method, then:
(§1) The in vitro susceptibility of well-characterized wild-type C. albicans strain SC5314, which was provided by Prof. N.A.R. Gow (University of Aberdeen, Aberdeen, UK) was tested against 1280 compounds from the Library of Pharmacologically Active Compounds (LOPAC^1280TM, Sigma–Aldrich, USA). The screen was performed with C. albicans SC5314, and hits were further confirmed with the type strains C. dubliniensis MYA 577, C. glabrata ATCC 2001, C. kusei ATCC 6258, C. palapsilosis ATCC 22019, and C. tropicalis ATCC13803.
(§2) To investigate the antifungal effects of the hit compounds, ASTs were conducted using broth microdilution assays with high cell densities of the planktonic mode, adhesion phase and biofilm mode against Candida strains (C. albicans, C. dubliniensis, C. glabrata, C. kusei, C. palapsilosis, and C. tropicalis). First, high density cell (1 × 10^7 cells/mL) suspensions were added to the RPMI medium containing each hit compound (10–1000 μM) in 96-well plates and incubated at 37°C for 24 h. Next, the 50% minimum inhibitory concentrations (MICs) of high-density Candida planktonic cultures were determined using the CellTiter-Glo luminescent cell viability kit, as described above. The antifungal effects of the hit compounds were also evaluated in the adhesion phase and the biofilm mode, in the same manner as the planktonic mode. Candida biofilms were produced as described previously ([Jin et al., 2004]). In brief, Candida cells were grown on SDA at 37°C for 18 h. A loopful of the yeast culture was then inoculated into yeast nitrogen base (YNB) (Difco, USA) medium supplemented with 50 mM glucose. After overnight broth culture in a rotary shaker at 75 rpm, the cells were washed twice with 20 mL of PBS (pH 7.2, 0.1 M). The yeast cells were re-suspended in YNB supplemented with 100 mM glucose and adjusted to an optical density of 0.38 (1 × 10^7 cells/mL) at 520 nm. This standardized cell suspension was used immediately to form biofilms in the wells of 96-well polystyrene culture plates (Iwaki, Tokyo, Japan). First, the cells were incubated for 90 min at 37°C in a shaker at 75 rpm to allow yeast adherence to the well surface (adhesion phase), before the medium was aspirated and each well was washed once with PBS to remove non-adherent cells. YNB containing 100 mM glucose was then pipetted into each well and the plate was incubated at 37°C in a shaker at 75 rpm for 24 h. Non-adherent cells were removed by pipetting and the biofilms were washed twice with PBS. Following this biofilm growth phase, microscopic examination of the cultures was performed to exclude contamination. These ASTs were repeated on three different occasions.

The subject of the next data set is C. dubliniensis MYA 577. The data set can be described thus: AST, adhesion phase. In kind it is cell-based. To be noted: Candida dubliniensis, MYA577, 1.5 h, read-out: Minimum inhibitory concentration (MIC). As for the experimental part: as §1, §2
A further data set has as its system C. glabrata ATCC 2001. The data set can be described thus: AST, adhesion phase. As to conditions: Nakaseomyces glabratus, ATCC2001, 1.5 h, read-out: Minimum inhibitory concentration (MIC). In kind it is cell-based. The method, then:
as §1, §2

In the next data set the test system is C. kusei ATCC 6258. The data set can be described thus: AST, adhesion phase. The data set is classed as cell-based. As to conditions: 1.5 h, read-out: Minimum inhibitory concentration (MIC). The method, then:
as §1, §2

The subject of data set [1] is C. palapsilosis ATCC 22019. The data set can be described thus: AST, adhesion phase. As to conditions: 1.5 h, read-out: Minimum inhibitory concentration (MIC). In kind it is cell-based. The method, then: as §1, §2
A further data set concerns C. tropicalis ATCC13803. The data set can be described thus: AST, adhesion phase. In kind it is cell-based. As to conditions: Candida tropicalis, ATCC13803, 1.5 h, read-out: Minimum inhibitory concentration (MIC). The method, then: as §1, §2
Data set [2] deals with C. albicans SC5314 biofilm. The data set can be described thus: AST, biofilm mode. The data set is classed as cell-based. To be noted: Candida albicans, read-out: Minimum inhibitory concentration (MIC). As for the experimental part:
as §1, §2

Data set [3] relates to C. palapsilosis ATCC 22019 biofilm. The data set can be described thus: AST, biofilm mode. The data set is classed as cell-based. As to conditions: read-out: Minimum inhibitory concentration (MIC). The method, then: as §1, §2
Data set [4] relates to human gingival fibroblast (hGF) cells. The data set can be described thus: Cytotoxicity, WST-1 cell counting assay. As for the experimental part:
Primary human gingival fibroblast (hGF) cultures were established from discarded healthy gingival tissues after surgery with the informed consent of the donors ([Nikawa et al., 2006]). In brief, the gingival tissue specimens were treated overnight with 0.025% trypsin and 0.02% EDTA at 4°C. After trypsin neutralization, the lamina propria mucosae were separated from the epithelial layer and minced into pieces in a plastic tissue culture dish, and then maintained in Dulbecco’s modified Eagle medium (Nacalai Tesque, Kyoto, Japan) supplemented with 10% FBS, 100 U/mL penicillin, […] and 250 ng/mL amphotericin B (Nacalai Tesque, Kyoto, Japan). After the fibroblasts had migrated out of the tissue, the tissues were removed and the cells were cultured until they reached confluence. The cells were then seeded onto 96-well tissue culture plates (500 cells per well) and the culture medium was exchanged with fresh growth medium containing the hit compounds (0.98–1000 μM). The cells were cultured continuously and the culture medium containing the hit compounds was renewed every other day. The number of cells was evaluated using the WST-1 cell counting assay (Dojindo Laboratories, Kumamoto, Japan), as described previously ([Hamada et al., 2007]). […] All the experiments were performed using three samples for each condition in triplicate.
To evaluate the safety for clinical use, we tested the cytotoxic effects of the hit compounds using human cell cultures. We used hGF cells because of their ubiquitous nature and their widespread use in cytotoxicity testing ([Egusa et al., 2009]; [LaFleur et al., 2011]). The hGF cells were grown in 96-well plates and exposed to increasing doses (two-fold increments) of each hit compound for 4 days. The hGF metabolic activity was measured every other day and used as an indicator of cell viability.

For a further data set, the system named is Candida biofilms. The data set can be described thus: AST, biofilm mode, all Candida strains. The data set is classed as cell-based. As to conditions: all six strains. The method, then:
as §1, §2

The mark [5] stands for this setting: adhesion phase (90 min adherence).
Setting [6] is: SC5314, biofilm mode (24 h biofilm).
The mark [7] stands for this setting: hGF cells, 4 days exposure, 50% reduction in cell number, WST-1.

Molecules are shown by their SMILES. ≈ marks a conversion by molar mass, not a printed value. Like-named read-outs stand apart in the source and are kept apart here.

As to `Cc1ccc(S(=O)(=O)/C=C/C#N)cc1` [Bay11-7082], the MIC with C. albicans SC5314 (setting [5]) is 31.3 µM (≈ 6.49 µg/mL); in the data set on C. dubliniensis MYA 577 (setting [5]), 15.6 µM (≈ 3.23 µg/mL); with C. glabrata ATCC 2001 (setting [5]) it was 31.3 µM (≈ 6.49 µg/mL); in the data set on C. kusei ATCC 6258 (setting [5]), 15.6 µM (≈ 3.23 µg/mL); in data set [1] (setting [5]) it was 15.6 µM (≈ 3.23 µg/mL); with C. tropicalis ATCC13803 (setting [5]), 31.3 µM (≈ 6.49 µg/mL). Besides, the MIC in data set [2] (setting [6]) amounted to 31.3 µM (≈ 6.49 µg/mL); in [3] (biofilm mode (24 h biofilm)), 15.6 µM (≈ 3.23 µg/mL). The “cytotoxicity to hGF cells (in words)” value in data set [4] is “cytotoxic to hGF cells at low concentrations”. Also, the Cytotoxic concentration in [4] (human, 4 days) was found to be 7.81 µM. Also, the “concentration that inhibited the metabolic activity of Candida biofilms” value with Candida biofilms (listed as BAY11-7082) was “below 500 μM”; in the data set with Candida biofilms (listed as Bay 11-7082), less than 62.5 µM.
With `CC(C)(C)c1ccc(S(=O)(=O)/C=C/C#N)cc1` [Bay11-7085], the MIC came to 31.3 µM (≈ 7.8 µg/mL) with C. albicans SC5314 (setting [5]); 15.6 µM (≈ 3.89 µg/mL) with C. dubliniensis MYA 577 (setting [5]); 31.3 µM (≈ 7.8 µg/mL) with C. glabrata ATCC 2001 (setting [5]); 15.6 µM (≈ 3.89 µg/mL) with C. kusei ATCC 6258 (setting [5]); 7.8 µM (≈ 1.94 µg/mL) in data set [1] (setting [5]); 31.3 µM (≈ 7.8 µg/mL) in the data set on C. tropicalis ATCC13803 (setting [5]). Moreover, the MIC in [2] (setting [6]) was 31.3 µM (≈ 7.8 µg/mL); in data set [3] (biofilm mode (24 h biofilm)), 15.6 µM (≈ 3.89 µg/mL). Further, the “cytotoxicity to hGF cells (in words)” value in data set [4] (hGF cells) is “cytotoxic to hGF cells at low concentrations”. Besides, the Cytotoxic concentration in [4] (setting [7]) was determined as 7.81 µM. For the same molecule, the figures for the “concentration that inhibited the metabolic activity of Candida biofilms” value with Candida biofilms (listed as BAY11-7085) and in the data set on Candida biofilms (listed as Bay 11-7085) were “below 500 μM” and less than 62.5 µM, respectively.
`Cc1c2ccncc2c(C)c2c1[nH]c1ccccc12` [Ellipticine]: the MIC worked out at 62.5 µM (≈ 15.4 µg/mL) in the data set on C. albicans SC5314 (setting [5]); 125 µM (≈ 30.8 µg/mL) with C. dubliniensis MYA 577 (setting [5]); 62.5 µM (≈ 15.4 µg/mL) in the data set on C. glabrata ATCC 2001 (setting [5]); 250 µM (≈ 61.6 µg/mL) with C. kusei ATCC 6258 (setting [5]); 125 µM (≈ 30.8 µg/mL) in [1] (setting [5]); 250 µM (≈ 61.6 µg/mL) in the data set with C. tropicalis ATCC13803 (setting [5]). Also, the MIC in [2] (setting [6]) came to 125 µM (≈ 30.8 µg/mL); in [3] (biofilm mode (24 h biofilm)) it was 250 µM (≈ 61.6 µg/mL). In data set [4] (hGF cells), the “cytotoxicity to hGF cells (in words)” value is “cytotoxic to hGF cells at low concentrations”. The Cytotoxic concentration in data set [4] (setting [7]) amounted to 1.95 µM. Also, the “concentration that inhibited the metabolic activity of Candida biofilms” value with Candida biofilms was less than 500 µM.
Regarding `C[n+]1cc2c3c(ccc2c2ccc4cc5c(cc4c21)OCO5)OCO3` [Sanguinarine, Sanguinarine chloride hydrate], the MIC in the data set with C. albicans SC5314 was determined as 15.6 µM; in the data set on C. dubliniensis MYA 577, 15.6 µM; in the data set with C. glabrata ATCC 2001 it was 15.6 µM; in the data set on C. kusei ATCC 6258, 7.8 µM; in data set [1], 7.8 µM; in the data set on C. tropicalis ATCC13803, 7.8 µM. Further, the MIC in data set [2] (SC5314, 24 h) was 15.6 µM; in [3] (24 h), 7.8 µM. Further, the “cytotoxicity to hGF cells (in words)” value in data set [4] (hGF cells) is listed as “cytotoxic to hGF cells at low concentrations”. In addition, the Cytotoxic concentration in [4] (setting [7]) was determined as 0.73 µM. In addition, the entries for the “concentration that inhibited the metabolic activity of Candida biofilms” value in the data set on Candida biofilms (listed as Sanguinarine chloride hydrate) and with Candida biofilms (listed as sanguinarine chloride hydrate) were less than 31.3 µM and “below 500 μM”, respectively.
